Laboratory results reported in PubChem BioAssay AID1963964 (Molecular Pharmacology Branch, DTP, NCI, 2024).

System: 997726-040-R-J2-PDC tumor spheroids, viability
Test: Anticancer human tumor 997726-040-R-J2-PDC patient-derived squamous cell lung carcinoma cell line growth inhibition [PI3K]
Conditions: spheroids with HUVEC and MSC; for viability, T/C: stronger effect = lower value
Method in brief: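 Tumor cells were combined with HUVEC and MSCs into spheroids, then dosed with PI3K-inhibitor combinations over half-log ranges capped near clinical Cmax or 10 microM.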

[1] = curve of first compound, second compound 0.00316 µM
[2] = curve of first compound, second compound 0.01 µM
[3] = curve of first compound, second compound 0.0316 µM
[4] = curve of first compound, second compound 0.1 µM
[5] = curve of first compound, second compound 0.316 µM
[6] = curve of first compound, second compound 1 µM
[7] = second compound 0.00316 µM, first compound 0.0316 µM
[8] = second compound 0.00316 µM, first compound 0.1 µM
[9] = second compound 0.00316 µM, first compound 0.316 µM
[10] = second compound 0.00316 µM, first compound 1 µM
[11] = second compound 0.00316 µM, first compound 3.16 µM
[12] = second compound 0.00316 µM, first compound 10 µM
[13] = second compound 0.01 µM, first compound 0.0316 µM
[14] = second compound 0.01 µM, first compound 0.1 µM
[15] = second compound 0.01 µM, first compound 0.316 µM
[16] = second compound 0.01 µM, first compound 1 µM
[17] = second compound 0.01 µM, first compound 3.16 µM
[18] = second compound 0.01 µM, first compound 10 µM
[19] = second compound 0.0316 µM, first compound 0.0316 µM
[20] = second compound 0.0316 µM, first compound 0.1 µM
[21] = second compound 0.0316 µM, first compound 0.316 µM
[22] = second compound 0.0316 µM, first compound 1 µM
[23] = second compound 0.0316 µM, first compound 3.16 µM
[24] = second compound 0.0316 µM, first compound 10 µM
[25] = second compound 0.1 µM, first compound 0.0316 µM
[26] = second compound 0.1 µM, first compound 0.1 µM
[27] = second compound 0.1 µM, first compound 0.316 µM
[28] = second compound 0.1 µM, first compound 1 µM
[29] = second compound 0.1 µM, first compound 3.16 µM
[30] = second compound 0.1 µM, first compound 10 µM
[31] = second compound 0.316 µM, first compound 0.0316 µM
[32] = second compound 0.316 µM, first compound 0.1 µM
[33] = second compound 0.316 µM, first compound 0.316 µM
[34] = second compound 0.316 µM, first compound 1 µM
[35] = second compound 0.316 µM, first compound 3.16 µM
[36] = second compound 0.316 µM, first compound 10 µM
[37] = second compound 1 µM, first compound 0.0316 µM
[38] = second compound 1 µM, first compound 0.1 µM
[39] = second compound 1 µM, first compound 0.316 µM
[40] = second compound 1 µM, first compound 1 µM
[41] = second compound 1 µM, first compound 3.16 µM
[42] = second compound 1 µM, first compound 10 µM
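Also: spheroids exposed to compounds for seven days before readout.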

With C#Cc1c(F)ccc2cc(O)cc(-c3ncc4c(N5CC6CCC(C5)N6)nc(OCC56CCCN5CC(F)C6)nc4c3F)c12 (stereo not given) + CC(Nc1ccc2c(c1)OCCn1cc(N3C(=O)OCC3C(F)F)nc1-2)C(N)=O the IC50 [1] was greater than 10000 nM, the IC50 [2] was greater than 10000 nM and the IC50 [3] was 5350 nM. For the same compound, the IC50 [4] was less than 31.6 nM, the IC50 [5] was less than 31.6 nM and the IC50 [6] was less than 31.6 nM. The viability, T/C [7] was 89.2%, the viability, T/C [8] was 97.8% and the viability, T/C [9] was 81.8%. It also gave a viability, T/C [10] of 83.5%, a viability, T/C [11] of 75.3% and a viability, T/C [12] of 77.4%. The viability, T/C [13] was 79%, the viability, T/C [14] was 83% and the viability, T/C [15] was 79.2%. It also gave a viability, T/C [16] of 75%, a viability, T/C [17] of 68.5% and a viability, T/C [18] of 55%. It also gave a viability, T/C [19] of 62.4%, a viability, T/C [20] of 65% and a viability, T/C [21] of 55.3%. It also gave a viability, T/C [22] of 60%, a viability, T/C [23] of 55.6% and a viability, T/C [24] of 44.2%. The viability, T/C [25] was 45.8%, the viability, T/C [26] was 43.4% and the viability, T/C [27] was 45.5%. For the same compound, the viability, T/C [28] was 44.9%, the viability, T/C [29] was 38.5% and the viability, T/C [30] was 52.9%. It also gave a viability, T/C [31] of 35.8%, a viability, T/C [32] of 36.1% and a viability, T/C [33] of 31.9%. It also gave a viability, T/C [34] of 31.5%, a viability, T/C [35] of 25.6% and a viability, T/C [36] of 24.8%. The viability, T/C [37] was 26.8%, the viability, T/C [38] was 30.1% and the viability, T/C [39] was 27.2%. For the same compound, the viability, T/C [40] was 26.6%, the viability, T/C [41] was 26.1% and the viability, T/C [42] was 25.1%.

CC(Cn1ccc(-c2ccc(C#N)c(Cl)c2)n1)NC(=O)c1cc(C(C)O)[nH]n1 (stereo not given) + COc1c(OCCCN2CCOCC2)ccc2c3n(c(=NC(=O)c4cnc(N)nc4)nc12)CCN3 showed an IC50 [1] greater than 10000 nM, an IC50 [2] greater than 10000 nM and an IC50 [3] of less than 31.6 nM. It also gave an IC50 [4] of less than 31.6 nM, an IC50 [5] of less than 31.6 nM and an IC50 [6] of less than 31.6 nM. For the same compound, the viability, T/C [7] was 69.7%, the viability, T/C [8] was 67% and the viability, T/C [9] was 78.8%. For the same compound, the viability, T/C [10] was 78.8%, the viability, T/C [11] was 82.3% and the viability, T/C [12] was 74%. The viability, T/C [13] was 57.3%, the viability, T/C [14] was 60.4% and the viability, T/C [15] was 59.9%. It also gave a viability, T/C [16] of 56.1%, a viability, T/C [17] of 54.6% and a viability, T/C [18] of 54.8%. For the same compound, the viability, T/C [19] was 35.7%, the viability, T/C [20] was 36.3% and the viability, T/C [21] was 41%. The viability, T/C [22] was 33.6%, the viability, T/C [23] was 37.6% and the viability, T/C [24] was 37.2%. It also gave a viability, T/C [25] of 23%, a viability, T/C [26] of 21.4% and a viability, T/C [27] of 21.5%. For the same compound, the viability, T/C [28] was 24.5%, the viability, T/C [29] was 22.6% and the viability, T/C [30] was 22.9%. The viability, T/C [31] was 4.78%, the viability, T/C [32] was 4.57% and the viability, T/C [33] was 5.76%. The viability, T/C [34] was 6.82%, the viability, T/C [35] was 4.57% and the viability, T/C [36] was 5.74%. The viability, T/C [37] was 1.37%, the viability, T/C [38] was 1.18% and the viability, T/C [39] was 1.28%. The viability, T/C [40] was 1.44%, the viability, T/C [41] was 1.61% and the viability, T/C [42] was 1.51%.

For Cn1ncnc1[C@H]1c2n[nH]c(=O)c3cc(F)cc(c23)N[C@@H]1c1ccc(F)cc1, the viability, T/C (compound 0.000316 µM) was 98.9% [middle of 4 runs], the viability, T/C (compound 0.001 µM) was 99.5% [middle of 4 runs] and the viability, T/C (compound 0.00316 µM) was 96.6% [middle of 4 runs]. For the same compound, the viability, T/C (compound 0.01 µM) was 98.5% [middle of 4 runs], the viability, T/C (compound 0.0316 µM) was 116% [middle of 4 runs] and the viability, T/C (compound 0.1 µM) was 102% [middle of 4 runs]. For the same compound, the IC50 (curve of compound) was greater than 100 nM.

With CC(Nc1ccc2c(c1)OCCn1cc(N3C(=O)OCC3C(F)F)nc1-2)C(N)=O (stereo not given) the viability, T/C (compound 0.00316 µM) was 91.6% [middle of 8 runs], the viability, T/C (compound 0.01 µM) was 81.8% [middle of 8 runs] and the viability, T/C (compound 0.0316 µM) was 61% [middle of 8 runs]. The viability, T/C (compound 0.1 µM) was 44.3% [middle of 8 runs], the viability, T/C (compound 0.316 µM) was 32.9% [middle of 8 runs] and the viability, T/C (compound 1 µM) was 28.2% [middle of 8 runs]. The IC50 (compound alone, run of 06/12/2023) was 71.5 nM [middle of 8 runs].

CCN1CCN(Cc2ccc(Nc3ncc(F)c(-c4cc(F)c5nc(C)n(C(C)C)c5c4)n3)nc2)CC1 + CC(Nc1ncnc2nc[nH]c12)c1cc2cccc(Cl)c2c(=O)n1-c1ccccc1 gave an IC50 [3] greater than 1000 nM, an IC50 [4] greater than 1000 nM and an IC50 [5] greater than 1000 nM. The IC50 [6] was greater than 1000 nM, the IC50 (curve of first compound, second compound 3.16 µM) was greater than 1000 nM and the IC50 (curve of first compound, second compound 10 µM) was 5.26 nM. For the same compound, the viability, T/C (second compound 0.0316 µM, first compound 0.00316 µM) was 95.3%, the viability, T/C (second compound 0.0316 µM, first compound 0.01 µM) was 82.4% and the viability, T/C [19] was 75.6%. It also gave a viability, T/C [20] of 74.4%, a viability, T/C [21] of 67.2% and a viability, T/C [22] of 76.8%. For the same compound, the viability, T/C (second compound 0.1 µM, first compound 0.00316 µM) was 81.7%, the viability, T/C (second compound 0.1 µM, first compound 0.01 µM) was 91.1% and the viability, T/C [25] was 73.1%. For the same compound, the viability, T/C [26] was 68.3%, the viability, T/C [27] was 74.9% and the viability, T/C [28] was 82.7%. The viability, T/C (second compound 0.316 µM, first compound 0.00316 µM) was 87.5%, the viability, T/C (second compound 0.316 µM, first compound 0.01 µM) was 97.1% and the viability, T/C [31] was 73.2%. It also gave a viability, T/C [32] of 68.7%, a viability, T/C [33] of 69.8% and a viability, T/C [34] of 78.4%. The viability, T/C (second compound 1 µM, first compound 0.00316 µM) was 79.1%, the viability, T/C (second compound 1 µM, first compound 0.01 µM) was 78.4% and the viability, T/C [37] was 59.9%. The viability, T/C [38] was 61.5%, the viability, T/C [39] was 61.4% and the viability, T/C [40] was 68.9%. For the same compound, the viability, T/C (second compound 3.16 µM, first compound 0.00316 µM) was 70.7%, the viability, T/C (second compound 3.16 µM, first compound 0.01 µM) was 66.1% and the viability, T/C (second compound 3.16 µM, first compound 0.0316 µM) was 56.3%. For the same compound, the viability, T/C (second compound 3.16 µM, first compound 0.1 µM) was 52.1%, the viability, T/C (second compound 3.16 µM, first compound 0.316 µM) was 60.1% and the viability, T/C (second compound 3.16 µM, first compound 1 µM) was 66%. For the same compound, the viability, T/C (second compound 10 µM, first compound 0.00316 µM) was 51.5%, the viability, T/C (second compound 10 µM, first compound 0.01 µM) was 50.9% and the viability, T/C (second compound 10 µM, first compound 0.0316 µM) was 41.2%. It also gave a viability, T/C (second compound 10 µM, first compound 0.1 µM) of 40.9%, a viability, T/C (second compound 10 µM, first compound 0.316 µM) of 40.6% and a viability, T/C (second compound 10 µM, first compound 1 µM) of 47.1%.
